Legend:
Assay in all cases: Cell viability drug screen, 12-point dose-response AUC
Type in all cases: cell-based, human
[1] = tested on: YCC2; conditions: YCC2 cells; 72 hours
Method in brief: (§1)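 AUC values represent the area under DMSO-normalized 12-point curves, computed by trapezoid rule and averaged over repeated experiments. Each EMT-type gastric line was exposed to half-log serial concentrations for 72 h at 37 °C, and viability was measured with a Glo luminescence kit.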

[2] = tested on: SNU1750; conditions: SNU1750 cells (SEM subtype); 72 hours
Method in brief: as §1

[3] = tested on: SNU16; conditions: SNU16 cells; 72 hours
Method in brief: as §1

[4] = tested on: KATO3; conditions: KATO3 cells; 72 hours
Method in brief: as §1

[5] = tested on: SNU638; conditions: SNU638 cells; 72 hours
Method in brief: as §1

[6] = tested on: NCC20; conditions: NCC20 cells; 72 hours
Method in brief: as §1

[7] = tested on: SNU1; conditions: SNU1 cells; 72 hours
Method in brief: as §1

[8] = tested on: SNU719; conditions: SNU719 cells; 72 hours
Method in brief: (§2)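 AUC comes from 12-point half-log dose–response curves, normalized to DMSO-treated cells and integrated trapezoidally, repeats averaged. Luminescent viability read after 72 h compound exposure at 37 °C; cells plated 5×10^3 per well 24 h before dosing.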

[9] = tested on: SNU620; conditions: SNU620 cells; 72 hours
Method in brief: as §1

[10] = tested on: SNU601; conditions: SNU601 cells; 72 hours
Method in brief: as §1

[11] = tested on: NCI_N87; conditions: NCI_N87 cells; 72 hours
Method in brief: as §1

[12] = tested on: MKN45; conditions: MKN45 cells (non-SEM subtype); 72 hours
Method in brief: as §2

[13] = tested on: SNU484; conditions: SNU484 cells (SEM subtype); 72 hours
Method in brief: as §1

[14] = tested on: SK4; conditions: SK4 cells (SEM subtype); 72 hours
Method in brief: as §1

[15] = tested on: OCUM1; conditions: OCUM1 cells; 72 hours
Method in brief: as §1

[16] = tested on: NCC59; conditions: NCC59 cells; 72 hours
Method in brief: as §1

[17] = tested on: AGS; conditions: AGS cells (non-SEM subtype); 72 hours
Method in brief: as §2

[18] = tested on: NCC19; conditions: NCC19 cells; 72 hours
Method in brief: as §1

[19] = tested on: Hs746T; conditions: Hs746T cells (SEM subtype); 72 hours
Method in brief: as §1

[20] = tested on: SNU216; conditions: SNU216 cells (non-SEM subtype); 72 hours
Method in brief: as §2

[21] = tested on: MKN28; conditions: MKN28 cells; 72 hours
Method in brief: as §1

[22] = tested on: NCC24; conditions: NCC24 cells; 72 hours
Method in brief: as §1

[23] = tested on: YCC3; conditions: YCC3 cells; 72 hours
Method in brief: as §1

[24] = tested on: MKN1; conditions: MKN1 cells; 72 hours
Method in brief: as §1

[25] = tested on: YCC11; conditions: YCC11 cells (SEM subtype); 72 hours
Method in brief: as §1

[26] = tested on: SNU1967; conditions: SNU1967 cells; 72 hours
Method in brief: as §1

[27] = tested on: SNU668; conditions: SNU668 cells (SEM subtype); 72 hours
Method in brief: as §1

[28] = tested on: MKN74; conditions: MKN74 cells; 72 hours
Method in brief: as §2

[29] = tested on: FU97; design: Average Area Under the Viability Curve (AUC), AUC norm value: scale not given here; conditions: FU97 cells; 72 hours
Method in brief: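 Trapezoidal AUC of a 12-point, DMSO-normalized dose-response curve. Luminescent viability was measured after 72 h of exposure at 37° C to half-log serial dilutions (0.5% DMSO control), dosed 24 h after plating FU97 cells at 5×10^3 per well.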

SMILES	Average Area Under the Viability Curve (AUC), AUC norm value [1]	Average Area Under the Viability Curve (AUC), AUC norm value [2]	Average Area Under the Viability Curve (AUC), AUC norm value [3]	Average Area Under the Viability Curve (AUC), AUC norm value [4]	Average Area Under the Viability Curve (AUC), AUC norm value [5]	Average Area Under the Viability Curve (AUC), AUC norm value [6]	Average Area Under the Viability Curve (AUC), AUC norm value [7]	Average Area Under the Viability Curve (AUC), AUC norm value [8]	Average Area Under the Viability Curve (AUC), AUC norm value [9]	Average Area Under the Viability Curve (AUC), AUC norm value [10]	Average Area Under the Viability Curve (AUC), AUC norm value [11]	Average Area Under the Viability Curve (AUC), AUC norm value [12]	Average Area Under the Viability Curve (AUC), AUC norm value [13]	Average Area Under the Viability Curve (AUC), AUC norm value [14]	Average Area Under the Viability Curve (AUC), AUC norm value [15]	Average Area Under the Viability Curve (AUC), AUC norm value [16]	Average Area Under the Viability Curve (AUC), AUC norm value [17]	Average Area Under the Viability Curve (AUC), AUC norm value [18]	Average Area Under the Viability Curve (AUC), AUC norm value [19]	Average Area Under the Viability Curve (AUC), AUC norm value [20]	also measured
CC(C)C[C@H](NC(=O)[C@H](CCc1ccccc1)NC(=O)CN1CCOCC1)C(=O)N[C@@H](Cc1ccccc1)C(=O)N[C@@H](CC(C)C)C(=O)[C@@]1(C)CO1 [Carfilzomib (PR-171), Carfilzomib]	0.8534	−0.9787	−1.3183	0.1004	0.1464	−2.002	0.1391	0.5178	−0.4242	1.489	0.5098	0.5553	−0.7602	−0.2415	1.245	0.8592	−0.131	1.562	−1.399	0	Average Area Under the Viability Curve (AUC), AUC norm value [21]: −0.7065; Average Area Under the Viability Curve (AUC), AUC norm value [22]: −0.8995; Average Area Under the Viability Curve (AUC), AUC norm value [23]: 1.747; Average Area Under the Viability Curve (AUC), AUC norm value [24]: 0.1771; Average Area Under the Viability Curve (AUC), AUC norm value [25]: −0.7607; Average Area Under the Viability Curve (AUC), AUC norm value [26]: −0.5586; Average Area Under the Viability Curve (AUC), AUC norm value [27]: 1.899; Average Area Under the Viability Curve (AUC), AUC norm value [28]: −0.3162; Average Area Under the Viability Curve (AUC), AUC norm value [29]: −0.1687
C/C=C(\C)C(=O)N[C@@H](c1ccccc1)[C@@H](O)C(=O)O[C@H]1C[C@@]2(O)[C@@H](OC(=O)c3ccccc3)[C@@H]3[C@]4(OC(C)=O)CO[C@@H]4C[C@H](O)[C@@]3(C)C(=O)[C@H](OC(C)=O)C(=C1C)C2(C)C [Cephalomannine]	0.3838	1.009	−1.737	4.179	−0.03958	−0.5011	−2.056	4.893	−2.403	0.2225	−1.26	0	−0.7051	−1.144	1.3887	2.734	−2.055	1.7094	0.449	1.8612	Average Area Under the Viability Curve (AUC), AUC norm value [21]: −1.697; Average Area Under the Viability Curve (AUC), AUC norm value [22]: −0.7716; Average Area Under the Viability Curve (AUC), AUC norm value [23]: 2.809; Average Area Under the Viability Curve (AUC), AUC norm value [24]: −1.486; Average Area Under the Viability Curve (AUC), AUC norm value [25]: −1.013; Average Area Under the Viability Curve (AUC), AUC norm value [26]: 0.6525; Average Area Under the Viability Curve (AUC), AUC norm value [27]: −0.1911; Average Area Under the Viability Curve (AUC), AUC norm value [28]: 0.3528; Average Area Under the Viability Curve (AUC), AUC norm value [29]: 0.4107
CCCCCCCCCCCCCCCC[n+]1ccccc1 [Cetylpyridinium Chloride]	0.1421	−0.3613	−0.1534	1.072	−0.3142	−0.2318	0.5171	1.718	0.09525	2.328	1.075	0	−0.7401	−1.312	−0.1441	1.497	−0.1044	1.205	0.2943	−0.1483	Average Area Under the Viability Curve (AUC), AUC norm value [21]: 0.4876; Average Area Under the Viability Curve (AUC), AUC norm value [22]: 0.06564; Average Area Under the Viability Curve (AUC), AUC norm value [23]: 0.3901; Average Area Under the Viability Curve (AUC), AUC norm value [24]: 0.9994; Average Area Under the Viability Curve (AUC), AUC norm value [25]: −1.129; Average Area Under the Viability Curve (AUC), AUC norm value [26]: −0.5001; Average Area Under the Viability Curve (AUC), AUC norm value [27]: −0.02952; Average Area Under the Viability Curve (AUC), AUC norm value [28]: −0.4176; Average Area Under the Viability Curve (AUC), AUC norm value [29]: −2.039
CO[C@@H](C(=O)N1Cc2n[nH]c(NC(=O)c3ccc(N4CCN(C)CC4)cc3)c2C1)c1ccccc1 [Danusertib (PHA-739358), Danusertib]	−0.9901	−2.3091	−3.76	−0.3046	−0.2145	−4.082	−2.274	3.935	−2.616	2.877	2.122	2.103	−1.537	−0.6677	0.8742	1.632	−1.034	1.885	1.565	0	Average Area Under the Viability Curve (AUC), AUC norm value [21]: 1.245; Average Area Under the Viability Curve (AUC), AUC norm value [22]: 0.9879; Average Area Under the Viability Curve (AUC), AUC norm value [23]: 0.7949; Average Area Under the Viability Curve (AUC), AUC norm value [24]: −0.8271; Average Area Under the Viability Curve (AUC), AUC norm value [25]: −1.357; Average Area Under the Viability Curve (AUC), AUC norm value [26]: 0.03541; Average Area Under the Viability Curve (AUC), AUC norm value [27]: 1.049; Average Area Under the Viability Curve (AUC), AUC norm value [28]: 0.1321; Average Area Under the Viability Curve (AUC), AUC norm value [29]: −2.488
